In patent publication US7462598B2, “Antimicrobial theta defensins, analogs thereof, and methods of use” (priority 2002, dated 2008):
Bridge positions count the residues as written; N and C are the ends. Square brackets hold non-standard residues; d marks the D form. Peptide text beside a SMILES is read from it. hSer = N[C@@H](CCO)C(=O)O

Legend:
[1] = tested on: S. aureus 502a; experiment: Cell-suspension microbicidal assay (MMC); assay type: cell-based, Staphylococcus aureus; conditions: lowest concentration that reduced cell viability by 99.9%; 10 mM PIPES, 5 mM glucose, pH 7.4; 2 h 37° C.
Method in brief: (§1)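 Log-phase microbes (2×10^6 CFU/ml) exposed to two-fold peptide dilutions (0.062-8.0 μg/ml) in 10 mM PIPES, 5 mM glucose, pH 7.4, 2 h at 37 °C, then diluted 1:10 to 1:10^6 in broth and grown 24-48 h. MMC is the lowest concentration giving ≥99.9% killing (no pellet at 1:10^3).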

[2] = tested on: E. coli ML35; experiment: Bactericidal activity in divalent cations (CaCl2, MgCl2); assay type: cell-based, Escherichia coli
Procedure: (§2) To determine the effects of serum, salt, calcium chloride and magnesium chloride on microbicidal activities, peptide activities were determined in assays containing varying ionic strength, divalent cations, and serum. The effect of serum on staphylocidal activity of each peptide was determined by incubating 1×10^6 CFU/ml of S. aureus 502a with increasing peptide concentrations (0.5-4 μg/ml) in 10 mM PIPES, pH 7.4, containing 10% normal human serum for 2 h at 37° C. The effect of sodium chloride on staphylocidal activities was assessed with 5 μg/ml of each peptide in 10 mM PIPES, pH 7.4, containing varying concentrations of sodium chloride (0-160 mM). Effects of divalent cations, CaCl2, or MgCl2 (0-5.6 mM) were assessed in microbicidal assays against E. coli ML35. Bactericidal activities were determined by colony counting (see Example II), and microbicidal potencies were expressed as percent killing as follows:
(§3) [formula] where A=surviving bacteria (CFU/ml) after initial incubation with each peptide in buffer containing serum, salt, or divalent cations and Ao=bacterial CFU/ml in the “no-peptide” controls.

[3] = tested on: C. albicans 16820; experiment: Cell-suspension microbicidal assay (MMC); assay type: cell-based, Candida albicans; conditions: for MMC, C. albicans: lowest concentration that reduced cell viability by 99.9%, 10 mM PIPES, 5 mM glucose, pH 7.4, 2 h 37° C.
Method in brief: as §1

[4] = tested on: S. aureus 502a; assay type: cell-based, Staphylococcus aureus; conditions: physiologic salt / various concentrations of salt; FIG. 6
Procedure: The activity of each peptide (5 μg/ml) was determined in assays containing increasing concentrations of sodium chloride. Staphylocidal activities were expressed as percentages of killing obtained in the absence of additional NaCl.
as §2, §3

[5] = tested on: S. aureus 502a, E. coli ML35, and C. albicans 16820; experiment: Cell-suspension microbicidal assay, statements across the test organisms (lowest MMC, overall ranges); assay type: cell-based; conditions: for M: peptide concentration that kill 99.9% of either S. aureus, E. coli, or C. albicans, lowest MMC value
Method in brief: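 Log-phase organisms (2×10^6 CFU/ml) were exposed for 2 h at 37° C. to peptide (0.062–8.0 μg/ml final) in 10 mM PIPES/5 mM glucose, pH 7.4, then serially diluted in broth and grown 24–48 h. MMC was defined as ≥99.9% killing (no pellet at 1:10^3). SI was calculated as concentration giving 3% hemolysis in PBS divided by lowest MMC.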

[6] = tested on: E. coli ML35; experiment: Membrane permeabilization assay (ONPG hydrolysis); assay type: cell-based, Escherichia coli; conditions: rates at 1 μg/ml concentration of each peptide
Method in brief: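 ONPG hydrolysis by log-phase E. coli ML35 (1×10^6 CFU/ml) in 10 mM PIPES pH 7.4 with 3 mM ONPG, peptides at 0-8.0 μg/ml final; A405 followed for 60 min. Control: 0-4 μg/ml peptide incubated with recombinant β-galactosidase and 3 mM ONPG.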

[7] = tested on: E. coli ML35; experiment: Cell-suspension microbicidal assay (MMC); assay type: cell-based, Escherichia coli
Method in brief: as §1

[8] = tested on: S. aureus 502a, E. coli ML35, C. albicans 16820, and C. neoformans 271a; experiment: Agar diffusion assay, statements across the test organisms; assay type: cell-based; conditions: against E. coli, FIG. 18A-D
Procedure: (§4) Briefly, 10-μl wells were bored in a 9-cm^2 plate of agarose, buffered with 10 mM 1,4-piperazinebis(ethanesulfonic acid) (PIPES), pH 7.4, containing 5 mM glucose, and seeded with 1×10^6 mid-log phase cells. Five-μl aliquots of peptides, dissolved in 0.01% HOAc at 10-300 μg/ml, were added to each well. After incubation at 37° C. for 2 h, the seeded agar was overlaid with molten agarose containing 6% trypticase soy broth (for bacteria) or Sabouraud dextrose broth (for fungi). Plates were incubated at 37° C. for 18-24 h, and antimicrobial activity was determined by measuring the diameter of clearing around each well.

[9] = tested on: S. aureus 502a; assay type: cell-based, Staphylococcus aureus; conditions: 502a
Procedure: Dose-dependent staphylocidal activity of each peptide was determined in assays containing 10% normal human serum. Percentages of killing are relative to activities of peptide-containing incubations in which serum was omitted.
as §2, §3

[10] = tested on: E. coli ML35; experiment: Agar diffusion assay; assay type: cell-based, Escherichia coli; conditions: diameter of clearing, FIG. 3
Procedure: as §4

[11] = biological target: T1, recombinant β-galactosidase (Escherichia coli, UniProt P00722); experiment: Inhibition of purified β-galactosidase (ONPG hydrolysis); assay type: biochemical; conditions: 4 μg/ml, the highest peptide concentration tested; 10 nM enzyme
T1 construct: gift from Dr. Donald P. Satchell, University of California, Irvine, Department of Pathology
Procedure: Dose-dependent rates of ONPG hydrolysis were determined using 10 nM of purified β-galactosidase.
The effect of each peptide on β-galactosidase-dependent ONPG hydrolysis was determined by incubating 0-4 μg/ml of each peptide with recombinant β-galactosidase (a gift from Dr. Donald P. Satchell, University of California, Irvine, Department of Pathology) and 3 mM ONPG as described above.

[12] = tested on: E. coli ML35; experiment: Microbicidal assay by colony counting (Example I); assay type: cell-based, Escherichia coli
Procedure: The limit of detection (1 colony per plate) was equal to 1×10^3 CFU/ml in the incubation mixture.
Microbicidal activity of each peptide was determined by incubating 2×10^6 CFU/ml with peptides (0.5-12 μg/ml) in 50 μl of 10 mM PIPES buffer containing 5 mM glucose, pH 7.4. […] After 37° C. incubation for 18-48 h, colonies were counted and cell survival was expressed as CFU/ml.

T1 sequence (P00722 2-1024): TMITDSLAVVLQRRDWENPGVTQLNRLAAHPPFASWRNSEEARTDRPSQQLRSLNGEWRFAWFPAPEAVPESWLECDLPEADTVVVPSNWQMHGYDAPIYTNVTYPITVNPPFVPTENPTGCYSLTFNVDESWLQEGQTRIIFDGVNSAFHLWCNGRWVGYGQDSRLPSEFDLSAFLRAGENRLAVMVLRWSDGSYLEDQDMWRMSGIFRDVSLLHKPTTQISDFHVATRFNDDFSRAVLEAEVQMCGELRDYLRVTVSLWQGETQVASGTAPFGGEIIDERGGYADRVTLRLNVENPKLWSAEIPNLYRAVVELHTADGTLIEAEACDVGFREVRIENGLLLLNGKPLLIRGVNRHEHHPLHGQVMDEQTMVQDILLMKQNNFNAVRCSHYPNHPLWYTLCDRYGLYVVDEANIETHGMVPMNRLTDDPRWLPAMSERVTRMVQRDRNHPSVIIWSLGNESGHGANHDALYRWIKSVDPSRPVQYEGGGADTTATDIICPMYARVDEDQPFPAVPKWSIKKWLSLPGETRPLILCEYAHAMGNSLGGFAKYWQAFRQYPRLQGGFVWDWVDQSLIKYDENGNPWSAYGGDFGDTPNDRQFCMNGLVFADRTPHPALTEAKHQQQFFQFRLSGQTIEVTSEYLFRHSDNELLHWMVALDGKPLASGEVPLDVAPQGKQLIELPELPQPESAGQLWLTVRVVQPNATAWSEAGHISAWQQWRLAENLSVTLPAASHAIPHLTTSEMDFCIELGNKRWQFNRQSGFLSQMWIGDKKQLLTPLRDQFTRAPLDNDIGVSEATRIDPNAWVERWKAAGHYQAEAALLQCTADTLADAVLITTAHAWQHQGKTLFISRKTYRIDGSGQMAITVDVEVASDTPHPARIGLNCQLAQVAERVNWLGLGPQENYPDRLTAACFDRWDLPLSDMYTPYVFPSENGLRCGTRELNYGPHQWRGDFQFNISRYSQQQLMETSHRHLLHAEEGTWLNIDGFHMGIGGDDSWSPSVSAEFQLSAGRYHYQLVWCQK

SMILES | MMC, S. aureus [1] | MMC, C. albicans [3] | M [5] | ONPG hydrolysis [6] | antimicrobial activity compared with synthetic / native RTD-1 [8] | further results
CC[C@H](C)[C@@H]1NC(=O)[C@@H]2CSSC[C@H](NC(=O)[C@H](CCCNC(=N)N)NC(=O)[C@@H](NC(=O)[C@H](Cc3ccccc3)NC(=O)CN)CSSC[C@@H](C(=O)N[C@H](C(=O)N[C@@H](CCCNC(=N)N)C(=O)O)[C@@H](C)O)NC1=O)C(=O)N[C@@H]([C@@H](C)CC)C(=O)N[C@H]1CSSC[C@H](NC(=O)[C@H](Cc3ccccc3)NC(=O)CNC(=O)[C@H](CCCNC(=N)N)NC(=O)[C@H]([C@@H](C)O)NC1=O)C(=O)N[C@@H](CCCNC(=N)N)C(=O)N2 [aRTD-2-OH] (H-GFCRCICTRGFCRCICTR-OH; disulfide 3-16, 5-14, 7-12; N-terminus assumed) | 1.5 µg/mL | 3.0 µg/mL | 1.5 µg/mL | 4.3 (A405/sec) · 10^−5 | – | inhibition of bactericidal activity by calcium chloride ([2]; physiologic concentration of calcium chloride (1.4 mM)): completely ablated; effect of salt on microbicidal activity (in words) [4]: most inhibited; 99.9% kill against one of the bacterial organisms ([5]; at 8 μg/ml, the highest concentration tested): did not achieve a 99.9% kill; fold reduction of potency against E. coli versus native cyclic peptide ([7]; versus RTD-2): at least 3 fold
CC[C@H](C)[C@@H]1NC(=O)[C@@H]2CSSC[C@H](NC(=O)[C@H](CCCNC(=N)N)NC(=O)[C@@H](NC(=O)[C@H](Cc3ccccc3)NC(=O)CN)CSSC[C@@H](C(=O)N[C@H](C(=O)N[C@@H](CCCNC(=N)N)C(=O)N[C@@H](CCO)C(=O)O)[C@@H](C)O)NC1=O)C(=O)N[C@@H](CC(C)C)C(=O)N[C@H]1CSSC[C@H](NC(=O)[C@H](C(C)C)NC(=O)CNC(=O)[C@H](CCCNC(=N)N)NC(=O)[C@H](CCCNC(=N)N)NC1=O)C(=O)N[C@@H](CCCNC(=N)N)C(=O)N2 [aRTD-1-Hse] (H-GFCRCLCRRGVCRCICTR[hSer]-OH; disulfide 3-16, 5-14, 7-12 (inferred); N-terminus and C-terminus assumed) | – | – | – | – | more antimicrobial than native RTD-1 | –
CC[C@H](C)[C@@H]1NC(=O)[C@@H]2CSSC[C@H](NC(=O)[C@H](CCCNC(=N)N)NC(=O)[C@@H]3CSSC[C@H](NC1=O)C(=O)N[C@@H]([C@@H](C)O)C(=O)N[C@@H](CCCNC(=N)N)C(=O)NCC(=O)N[C@@H](Cc1ccccc1)C(=O)N3)C(=O)N[C@@H](CC(C)C)C(=O)N[C@H]1CSSC[C@H](NC(=O)[C@H](C(C)C)NC(=O)CNC(=O)[C@H](CCCNC(=N)N)NC(=O)[C@H](CCCNC(=N)N)NC1=O)C(=O)N[C@@H](CCCNC(=N)N)C(=O)N2 [recombinant RTD-1] (cyclo(GFCRCLCRRGVCRCICTR); disulfide 3-16, 5-14, 7-12) | – | – | – | – | virtually indistinguishable | –
CC(C)C[C@H](NC(=O)[C@@H]1CSSC[C@H](NC(=O)[C@H](CCCNC(=N)N)NC(=O)[C@H](C)NC(=O)[C@@H](NC(=O)CNC(=O)[C@@H](N)CCCNC(=N)N)C(C)C)C(=O)N[C@@H](CC(C)C)C(=O)N[C@H]2CSSC[C@H](NC(=O)[C@H](C(C)C)NC(=O)CNC(=O)[C@H](CCCNC(=N)N)NC(=O)[C@H](CCCNC(=N)N)NC2=O)C(=O)N[C@@H](CCCNC(=N)N)C(=O)N1)C(=O)N[C@@H](C)C(=O)N[C@@H](CCCNC(=N)N)C(N)=O [5:3 aRTD-3-NH] (H-RGVARCLCRRGVCRCLAR-NH2; disulfide 6-15, 8-13; N-terminus assumed) | 1.0 µg/mL | 2.3 µg/mL | 1 µg/mL | 3.9 (A405/sec) · 10^−5 | – | effect of divalent cations on bactericidal activity (in words) ([2]; various concentrations of divalent cations): completely inhibited; fold lower activity against C. albicans than RTD-3 and PG-1 ([3]; from MMC, Table 2): 2-3 fold; inhibition of bactericidal activity in serum [9]: 20-50%; fold lower activity against E. coli than RTD-3 and PG-1 ([7]; from MMC, Table 2): 2-3 fold
CC(C)C[C@@H]1NC(=O)[C@@H]2CSSC[C@H](NC(=O)[C@H](CCCNC(=N)N)NC(=O)[C@@H]3CSSC[C@H](NC1=O)C(=O)N[C@@H](CCCNC(=N)N)C(=O)N[C@@H](CCCNC(=N)N)C(=O)NCC(=O)N[C@@H](C(C)C)C(=O)N3)C(=O)N[C@@H](CC(C)C)C(=O)N[C@H]1CSSC[C@H](NC(=O)[C@H](C(C)C)NC(=O)CNC(=O)[C@H](CCCNC(=N)N)NC(=O)[C@H](CCCNC(=N)N)NC1=O)C(=O)N[C@@H](CCCNC(=N)N)C(=O)N2 [RTD-3] (cyclo(CLCRRGVCRCLCRRGVCR); disulfide 1-10, 3-8, 12-17) | 1.0 µg/mL | 1.0 µg/mL | 1 µg/mL | 9.2 (A405/sec) · 10^−5 | – | fold less active than RTD-1 and RTD-2 against E. coli [10]: 2- to 3 fold; reduction of ONPG hydrolysis by purified β-galactosidase [11]: 50%; MMC, range over the test organisms ([5]; S. aureus, E. coli and C. albicans, 10 mM PIPES, 5 mM glucose, pH 7.4): 1 to 2 µg/mL; amount of peptide required to achieve the microbicidal effect of RTD-1 and 2 ([12]; killing of E. coli, 2 h): approximately twice as much of the peptide was required; activity against E. coli compared with RTD-1 and -2 ([12]; longer incubation times (4 or 6 h)): nearly equivalent; MMC, E. coli ([7]; lowest concentration that reduced cell viability by 99.9%, 10 mM PIPES, 5 mM glucose, pH 7.4, 2 h 37° C.): 2.0 µg/mL
